Here are results for two compounds from patent publication US20060223782A1, “2-Methylene-19-nor-(23S)-25-dehydro-1alpha-hydroxyvitamin D3-26,23-lactone and 2-methylene-19-nor-(23R)-25-dehydro-1alpha-hydroxyvitamin D3-26,23-lactone” (Wisconsin Alumni Research Foundation, priority 2005, published 2006).

For one assay, the system named is HL-60 cells. Briefly: HL-60 differentiation (nitro blue tetrazolium reduction). It is filed as cell-based, human. The conditions noted are these: FIG. 2. How it is done: The study drugs were dissolved in ethanol and the concentrations determined using UV spectrophotometry. Serial dilutions were prepared so that a range of drug concentrations could be tested without changing the final concentration of ethanol (≦0.2%) present in the cell cultures.
Human promyelocyiic leukemia (HL60) cells were grown in RPMI-1640 medium containing 10% fetal bovine serum. The cells were incubated at 37° C. in the presence of 5% CO2.
HL60 cells were plated at 1.2×10^5 cells/mL. Eighteen hours after plating, cells in duplicate were treated with drug. Four days later, the cells were harvested and a nitro blue tetrazolium reduction assay was performed (Collins et al., 1979; J. Exp. Med. 149:969-974). The percentage of differentiated cells was determined by counting a total of 200 cells and recording the number that contained intracellular black-blue formazan deposits. Verification of differentiation to monocytic cells was determined by measuring phagocytic activity (data not shown).

The subject of assay [1] is Sprague-Dawley rats. Briefly: Intestinal calcium transport (everted gut sac method). It is filed as in vivo, rat. The following applies: four consecutive ip doses, FIG. 7. How it is done:
(§1) Male, weanling Sprague-Dawley rats were placed on Diet 11 (Suda et al. J. Nutr. 100:1049, 1970) (0.47% Ca) diet+vitamins AEK for one week followed by Diet 11 (0.02% Ca)+AEK for 3 weeks. The rats were then switched to a diet containing 0.47% Ca for one week followed by two weeks on a diet containing 0.02% Ca. Dose administration began during the last week on 0.02% calcium diet. Four consecutive ip doses were given approximately 24 hours apart. Twenty-four hours after the last dose, blood was collected from the severed neck and the concentration of serum calcium determined as a measure of bone calcium mobilization. The first 10 cm of the intestine was also collected for intestinal calcium transport analysis using the everted gut sac method. Antagonism was tested by administering a combination of 1,25(OH)2D3 and the compound to the animal simultaneously.

Assay [2] relates to Sprague-Dawley rats. The experiment in a line: Bone calcium mobilization (serum calcium). It counts as in vivo, rat. The following applies: four consecutive ip doses, even at 2,340 pmol/day, FIG. 6. The method, then:
as §1

Assay [3] deals with 24-hydroxylase (24OHase) gene promoter in ROS 17/2.8 (bone) cells. Briefly: In vitro transcription assay, antagonism of 1,25(OH)2D3 (24OHase promoter-luciferase). It counts as cell-based. The following applies: combination with 1,25(OH)2D3 in the same well; FIGS. 3-5. How it is done: Transcription activity was measured in ROS 17/2.8 (bone) cells that were stably transfected with a 24-hydroxylase (24OHase) gene promoter upstream of a luciferase reporter gene (Arbour et al., 1998). Cells were given a range of doses. Sixteen hours after dosing the cells were harvested and luciferase activities were measured using a luminometer. RLU=relative luciferase units.
Antagonism was tested by adding a combination of 1,25(OH)2D3 and the compound in the same well keeping the final ethanol concentration the same.

For assay [4], the target named is T1, full-length recombinant rat vitamin D receptor (Rattus norvegicus, UniProt P13053).
T1 construct: Full-length recombinant rat vitamin D receptor was expressed in E. coli; histidine tag (C); made in house; host or cells: E. coli BL21(DE3) Codon Plus RIL
T1 sequence (P13053 1-423): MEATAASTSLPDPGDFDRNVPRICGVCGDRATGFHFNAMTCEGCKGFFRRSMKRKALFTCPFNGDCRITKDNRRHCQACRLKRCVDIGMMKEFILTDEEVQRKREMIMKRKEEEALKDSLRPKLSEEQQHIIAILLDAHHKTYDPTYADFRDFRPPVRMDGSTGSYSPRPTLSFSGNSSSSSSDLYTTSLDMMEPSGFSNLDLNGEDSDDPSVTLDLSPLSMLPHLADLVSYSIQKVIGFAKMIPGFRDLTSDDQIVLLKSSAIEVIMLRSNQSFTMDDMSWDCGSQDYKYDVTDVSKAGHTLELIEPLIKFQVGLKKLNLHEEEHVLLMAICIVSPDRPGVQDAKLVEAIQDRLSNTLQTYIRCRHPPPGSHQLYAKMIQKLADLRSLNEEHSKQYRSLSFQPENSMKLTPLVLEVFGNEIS
Briefly: Vitamin D receptor competitive binding with [3H]-1,25-(OH)2-D3. The conditions noted are these: competition with [3H]-1,25-(OH)2-D3; FIG. 1. How it is done: The first system was a nickel affinity resin that utilizes the C-terminal histidine tag on this protein. The protein that was eluted from this resin was further purified using ion exchange chromatography (S-Sepharose Fast Flow). Aliquots of the purified protein were quick frozen in liquid nitrogen and stored at −80° C. until use. For use in binding assays, the protein was diluted in TEDK50 (50 mM Tris, 1.5 mM EDTA, pH 7.4, 5 mM DTT, 150 mM KCl) with 0.1% Chaps detergent. The receptor protein and ligand concentration was optimized such that no more than 20% of the added radiolabeled ligand was bound to the receptor.
Radiolabeled and unlabeled ligands were added to 100 mcl of the diluted protein at a final ethanol concentration of ≦10%, mixed and incubated overnight on ice to reach binding equilibrium. The following day, 100 mcl of hydroxylapatite slurry (50%) was added to each tube and mixed at 10-minute intervals for 30 minutes. The hydroxylapaptite was collected by centrifugation and then washed three times with Tris-EDTA buffer (50 mM Tris, 1.5 mM EDTA, pH 7.4) containing 0.5% Titron X-100. After the final wash, the pellets were transferred to scintillation vials containing 4 mL of Biosafe II scintillation cocktail, mixed and placed in a scintillation counter. Total binding was determined from the tubes containing only radiolabeled ligand.

Regarding `C=C1C[C@H](C[C@@H](C)C2CC[C@H]3/C(=C/C=C4C[C@@H](O)C(=C)[C@H](O)C4)CCC[C@]23C)OC1=O` (stereo partly drawn) [HLV, 2-methylene-19-nor-(23S)-25-dehydro-1α-hydroxyvitamin D3-26,23-lactone], the “activity in inducing differentiation of HL-60 cells relative to 1,25-(OH)2D3” value in the assay with HL-60 cells is recorded as “less activity than 1,25-(OH)2D3”. The intestinal calcium transport result with Sprague-Dawley rats [1] is recorded as “retain the ability to elevate intestinal calcium transport”. Further, in the assay on Sprague-Dawley rats [2], the “calcemic activity measured by bone calcium mobilization” value was “no calcemic activity”. The “antagonistic activity when administered along with 1α,25-dihydroxyvitamin D3 (transcription)” value in assay [3] is “antagonistic activity to an even greater extent”. The “binding to the vitamin D receptor relative to 1α,25-dihydroxyvitamin D3” value in assay [4] is “less active”.
Consider `C=C1C[C@@H](C[C@@H](C)C2CC[C@H]3/C(=C/C=C4C[C@@H](O)C(=C)[C@H](O)C4)CCC[C@]23C)OC1=O` (stereo partly drawn) [GC-3, 2-methylene-19-nor-(23R)-25-dehydro-1α-hydroxyvitamin D3-26,23-lactone], for which the “activity in inducing differentiation of HL-60 cells relative to 1,25-(OH)2D3” value with HL-60 cells is on record as “less activity than 1,25-(OH)2D3”. Further, in the assay on Sprague-Dawley rats [1], the intestinal calcium transport entry was “retain the ability to elevate intestinal calcium transport”. In the assay with Sprague-Dawley rats [2], the “calcemic activity measured by bone calcium mobilization” value is recorded as “no calcemic activity”. Moreover, the “antagonistic activity when administered along with 1α,25-dihydroxyvitamin D3 (transcription)” value in assay [3] was “shows antagonistic activity”. The “binding to the vitamin D receptor relative to 1α,25-dihydroxyvitamin D3” value in assay [4] was “less active”.
